Test results published in patent US6491922B1, “Methods and compounds for treating autoimmune and vascular disease” (Cornell Research Foundation, Inc., priority 1996, dated 2002).

Tests used:
endothelial cells [1] = test: ^3H-lyso-PI binding to endothelial cells; design: species or system human; details: 1 μM, 45 min, 25° C.; 10^6 cells per ml
Description: To evaluate whether lyso-PI may directly bind to endothelial cells, endothelial cells (10^6 per ml) were incubated with ^3H-lyso-PI (1 μM [specific activity, ˜10,000 cpm/nmole], 45 min, 25° C.). As a control, endothelial cells were pretreated with LPG (20 μM, 15 min, 25° C.) before the incubation with ^3H-lyso-PI. Following incubation, the cell suspension was layed onto silicone oil (Silicones FC-50, General Electric, Waterford, N.Y.) and cell-bound ^3H-lyso-PI was separated from free-^3H-lyso-PI by centrifugation (10,000 g, 10 min, room temperature). The amount of ^3H-lyso-PI in the cell pellet and in the supernatant were solubilized in Ecoscint (National Diagnostics, Highland Park, N.J.) and quantitated by a β-emission counter (Beckman Instruments, Palo Alto, Calif.).

[2] = test system: human umbilical vein endothelial cells; test: Competition for LPG binding by LPG fragments (FACS); details: for competition with intact LPG for binding to endothelial cells: fragment 10 μM prior to intact LPG 1 μM; for Percent Inhibition: pretreatment with fragment 10 μM 15 min before intact LPG 1 μM, 15 min, 37° C., means ± SE of 3 experiments
Description: To address whether the lyso-PI and core-PI fragments may mediate cell binding, an indirect approach was used. Endothelial cells (10^6/ml) obtained by mild collagenase treatment were first incubated with either lyso-PI or core-PI (10 μM, 15 min 37° C.) prior to the addition of intact LPG (1 μM, 15 min 37° C.); PGM and PG (10 μM, 15 min 37° C.) were used as controls. Cells were washed, after incubation with anti-LPG mAb as described above (Indirect Immunofluorescence) and subjected to FACS analysis by binding of the intact LPG.

endothelial cells [3] = test: Endothelial adhesion to monocytes (MM6) assay; details: for inhibition of endotoxin-mediated endothelial adhesion to monocytes by LPG fragments: fragments 1-10 μM (2 μM, 1 h in FIG. 21), endotoxin 10 ng/ml 4 h
Description: Endothelial cell were isolated from human umbilical veins by an established method as described. […] In all experiments, 2-4 passages of subcultured endothelial cells were used and were grown on fibronectin-precoated 96-well plates for 2-3 days prior to use.
On the day of the experiment, endothelial cells were treated with endotoxin (E. coli, J5, 10 ng/ml) for 4 h. MM6 (1×10^5 cells) were subsequently added to the endotoxin-stimulated endothelial cells. Monocyte adhesion was performed for 20 min at 37° C. Unbound MM6 cells were removed by washing (3×). Adhesion of MM6 onto endothelium was quantitated by counting the bound MM6 cells under a microscope. […] The values of triplicates were averaged, and variations between triplicates were <5%. […] For experiments to examine if LPG could inhibit endotoxin-mediated monocyte adhesion, the endothelial cells were first preincubated with LPG (2 μM) for 1-2 h at 37° C. prior to the addition of endotoxin.

With “^3H-Lyso-alkyl-PI [^3H-lyso-PI, reference compound]” the “^3H-lyso-PI bound, of the total input ^3H-lyso-PI” value (endothelial cells [1]) was 32.2±3.1%.

In the case of “lyso-alkyl-phosphatidylinositol [lyso-PI]”, the “competition with intact LPG for binding to endothelial cells” value [2] is reported as ~30%, the “Percent Inhibition” value [2] is reported as 29.9 ± 6.0% and the “inhibition of endotoxin-mediated endothelial adhesion to monocytes by LPG fragments” value (endothelial cells [3]) is reported as “did not inhibit”.

In the case of “phosphosaccharide core-lyso-alkyl-phosphatidylinositol [core-PI]”, the “competition with intact LPG for binding to endothelial cells” value [2] is reported as ~30%, the “Percent Inhibition” value [2] is reported as 32.0 ± 5.0% and the “inhibitory effect of co-addition of fragments” value (endothelial cells [3]; co-addition of PG (2 μM) and core-PI (2 μM)) is reported as “No additive inhibitory effect”. For the same substance, the “inhibition of endotoxin-mediated endothelial adhesion to monocytes by LPG fragments” value (endothelial cells [3]) was “did not inhibit”.
